The values below are quoted from earlier work in article PMC2211560 (PLoS Medicine, 2008).

Read-outs that look alike come from different tables or passages of the source.

The conditions of data set [1]: rats and monkeys; daily for 14 days or daily for 5 days IV every 2 weeks, 4 courses; cited from earlier work.
For data set [2] the following is noted: rats, cited from earlier work.
The test system of data set [3] is several tumor types. The settings on record: Phase I trials; renal cell cancer, soft tissue sarcoma, cervical, endometrial, non-small cell cancer, non-Hodgkins lymphoma; cited from earlier work.
The conditions of data set [4]: cited from earlier work.
For data set [5] the following is noted: monkeys, cited from earlier work.
The conditions of data set [6]: cited from earlier work. The source holds these as a separate data set.
Data set [7] deals with cytochrome P450 3A (CYP3A). To be noted: human liver microsomal fractions; cited from earlier work.
For data set [8] the following is noted: in vitro or in vivo; cited from earlier work.
Setting [9] is: doses of 0.1-2.5 mg/kg, printed jointly for monkeys and rats.

In the case of `CO[C@H]1C[C@@H]2CC[C@@H](C)[C@@](O)(O2)C(=O)C(=O)N2CCCC[C@H]2C(=O)O[C@H]([C@H](C)C[C@@H]2CC[C@@H](OC(=O)C(C)(CO)CO)[C@H](OC)C2)CC(=O)[C@H](C)/C=C(\C)[C@@H](O)[C@@H](OC)C(=O)[C@H](C)C[C@H](C)/C=C/C=C/C=C/1C` [CCI-779], in data set [1], the life-threatening toxicity entry is reported as “No life-threatening toxicity was observed”. For the same compound, the elimination half life in data set [2] (setting [9]) and in data set [5] (setting [9]) was 8 to 16 h each time. The “volume of distribution (Vdss)” value in data set [2] is 13 to 19 L/kg; in data set [5], 1 to 5 L/kg. For the same compound, the Tumor regression result in data set [3] is “less than 50%”. The “blood/plasma (B/P) ratio, mean (range)” value in data set [4] (0.75 to 3.12 mg/m^2 daily x 5 schedule) is on record as 9.8 (2.4-20). The “mean exposure ratio (rapamycin to CCI-779)” value in data set [4] (blood, after CCI-779) is listed as about 3.2. In addition, the half-life in data set [4] (weekly dosing) is 19.3 h. Further, the “half-life, range” value in data set [4] (weekly dosing) is 13 to 39 h. In data set [4] (weekly dosing), the mean clearance was 22 L/h. Further, the “volume of distribution at steady state” value in data set [4] (weekly dosing) is listed as 306 L. Further, the MTD in data set [6] (daily x 5 every 2 weeks, heavily pretreated patients) was 15 mg/m^2; in data set [6] (daily x 5 every 2 weeks, minimally pretreated patients), 19.1 mg/m^2; in data set [6] (weekly schedule, doses 7.5 mg/m^2 to 220 mg/m^2), “has not yet been reached”. The metabolising enzyme result in data set [7] is reported as “primarily metabolized by cytochrome P450 3A (CYP3A)”. Further, in data set [8], the mutagenic effects entry is “no mutagenic effects”.
